Test results as given in US8097650B2, “Method of treating a condition associated with phosphorylation of TASK-1” (The Trustees of Columbia University In The City of New York, priority 2005, dated 2012).
Where two headings read alike, the source gives them in different places.

What was measured:
[1] = test system: murine TASK-1 T381A mutant; experiment: T381A mutant TASK-1 current in CHO cells; type: cell-based, mouse
Protocol: pCMV-TASK1 (cTBAK) consists of a 1.9 kb sequence of murine TASK-1 inserted in pcDNA3.1 (a kind gift of Dr. Yoshihisa Kurachi, University of Osaka, Japan) and has been previously described (Leonoudakis D et al. (1998) J Neurosci 18: 868-877). pEGFP-C1 and pIRES-EGFP were purchased from Clontech. pTIE (TASK1-IRES-EGFP) was constructed by inserting a 1.9 kb EcoR1 fragment from pCMV-TASK1 into EcoR1 digested pIRES-EGFP. Site-directed mutagenesis was performed on pTIE using the Quik-Change kit (Stratagene) following the manufacturer's instructions. […]
Cells were either co-transfected with pCMV-TASK1 together with pEGFP-C1 (1 μg total, 3:1) or transfected with […] or T381A-pTIE (1 μg). 48 h after the transfection the cells were checked under the microscope for green fluorescence. […]
The myocyte suspension or the coverslip with CHO cells was placed into a perfusion chamber, mounted on the stage of an inverted microscope. […] Membrane potential and current were measured in the whole cell configuration using borosilicate glass pipettes with a tip resistance between […] and filled with a pipette solution containing (mM): aspartic acid, 130; KOH, 146; NaCl, 10; CaCl2, 2; EGTA, 5; HEPES, 10; MGATP, 2; pH 7.2. […] Myocytes treated with the peptides were monitored continuously beginning immediately after rupture to detect the occurrence of any arrhythmias during dialysis of the peptide. […]

human TASK-1 T383A = experiment: Human TASK-1 T383A mutant current in CHO cells; type: cell-based; settings: Tyrode's pH 8, ramp
Description: FIGS. 24A-24B. Mutations in human TASK-1 remove the sensitivity to C-PAF and PMA when the channel is expressed in CHO cells. Two human TASK-1 (hTASK-1) mutants in which either serine-358 was converted to alanine (S358A) or threonine-383 was converted to alanine (T383A) were generated and separately expressed in CHO cells. The C-PAF-sensitive (24A) and PMA-sensitive currents (24B) were obtained in Tyrode's at pH 8 using a ramp protocol in […] configuration, essentially as described in FIG. 15. […] However, the S358A channel was not inhibited in the presence of C-PAF (24A) and the T383A channel was not inhibited by PMA (24B).

murine TASK-1 [2] = experiment: TASK-1 current expressed in CHO cells (whole-cell ramp clamp); type: cell-based, mouse
Protocol: The TASK-1 clone (provided by Professor Y. Kurachi, Osaka University) was co-transfected in CHO cells with CD8 plasmid using Lipofectamine Plus (Invitrogen) according to the manufacturer's instructions. 48 h later cells were transferred to the electrophysiology chamber and anti-CD8 coated beads (Dynal Biotech) were added to identify CD8 expressing cells. Expressing cells were voltage clamped using a ramp clamp (see below). CHO cells were used in these experiments, in part, because they express endogenous PAFR.
Chinese hamster ovary cells (CHO) were grown in F-12 medium supplemented with 10% fetal bovine serum. Twenty-four hours prior to transfection, cells were seeded into 6 well plates at 80-90% of confluence. Transfections were carried out with the GeneJammer transfection reagent (Stratagene) according to the manufacturer's instructions. Briefly, cells were washed with PBS and their medium replaced with supplemented F-12 medium (900 μl/well). For each well, GeneJammer (6 μl) was incubated with Opti-MEM (90 μl) followed by the addition of DNA (1 μg). This mixture was then added to the wells and 3 h later an additional 2 ml of supplemented F-12 medium was added. After incubating overnight, the cells were washed and their medium replaced.
Cells were either co-transfected with pCMV-TASK1 together with pEGFP-C1 (1 μg total, 3:1) or transfected with […] or T381A-pTIE (1 μg). 48 h after the transfection the cells were checked under the microscope for green fluorescence. Approximately 20% of the cells were positive for EGFP and these were then used for patch-clamp experiments. Due to the culture-to-culture variability in the expression of TASK-1 current, most comparisons were made on matched controls from the same transfection. Summary results were then obtained by pooling data from several different culture preparations.
The myocyte suspension or the coverslip with CHO cells was placed into a perfusion chamber, mounted on the stage of an inverted microscope. Unless otherwise indicated, CHO cells were superfused at room temperature with standard external Tyrode's buffer, containing (mM): NaCl, 140; KCl, 5.4; CaCl2, 1; MgCl2, 1; HEPES, 5; glucose, 10; adjusted to pH 7.4. Recordings were begun after the current reached a stable baseline (usually 3 to 4 min after initial cell rupture). In myocytes, TASK-1 current is small and exists in the presence of numerous larger K^+ currents. In order to increase the inward component of TASK-1 current and to block other potassium currents in myocytes, a modified high K^+ external solution (modified Tyrode's) was used to reduce outward rectification of TASK-1 current. The composition of this solution-was (in mM): NaCl, 100; KCl, 50; CaCl2, 1; MgCl2, 1; HEPES, 5; glucose, 10; tetraethylammonium (TEA), 1; CsCl, 5; adjusted to pH 7.4. Membrane potential and current were measured in the whole cell configuration using borosilicate glass pipettes with a tip resistance between […] and filled with a pipette solution containing (mM): aspartic acid, 130; KOH, 146; NaCl, 10; CaCl2, 2; EGTA, 5; HEPES, 10; MGATP, 2; pH 7.2. The stock solutions of C-PAF and of the PKC inhibitor, bisindolylmaleimide (BIM-I; Calbiochem), were prepared in water and diluted to the final concentrations in Tyrode's or modified Tyrode's, as appropriate. The PKC activator, PMA, was prepared in DMSO and then diluted in Tyrode's. […] Myocytes treated with the peptides were monitored continuously beginning immediately after rupture to detect the occurrence of any arrhythmias during dialysis of the peptide. Application of C-PAF to cells treated with the inhibitor peptide was started after the peptide had been permitted to dialyse into the cell (8-10 min after rupture for CHO or 10-12 min after rupture for myocytes).
The current and the voltage protocols were generated using Clampex 8.0 software applied by means of an Axopatch 200-B and a Digidata 1200 interface (Axon Instruments). […]

TASK-1 [3] = biological target: T1, TASK-1 (Mus musculus, UniProt O35111); experiment: C-PAF-sensitive steady-state current in murine ventricular myocytes (voltage clamp); type: cell-based
T1 construct: endogenous in cells; host or cells: adult mouse ventricular myocytes (C57/B16 background; WT or PAFR KO)
T1 sequence (O35111 whole entry): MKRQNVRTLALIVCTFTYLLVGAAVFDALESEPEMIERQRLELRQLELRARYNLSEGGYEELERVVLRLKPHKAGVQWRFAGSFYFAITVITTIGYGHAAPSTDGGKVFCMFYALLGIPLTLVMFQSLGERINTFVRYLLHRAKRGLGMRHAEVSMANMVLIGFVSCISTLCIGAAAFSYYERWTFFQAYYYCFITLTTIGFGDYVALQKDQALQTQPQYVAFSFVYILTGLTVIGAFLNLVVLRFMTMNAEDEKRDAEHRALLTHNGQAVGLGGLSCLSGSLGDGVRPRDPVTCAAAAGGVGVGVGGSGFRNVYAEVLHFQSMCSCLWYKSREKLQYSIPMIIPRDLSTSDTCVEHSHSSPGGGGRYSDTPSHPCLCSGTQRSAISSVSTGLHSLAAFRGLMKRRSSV
Protocol: (§1) Adult mice, 2-3 months old, were anesthetized with ketamine/xylazine and their hearts were removed according to protocols approved by the Columbia University-IACUC. Experiments were performed on single rod-shaped, quiescent ventricular myocytes dissociated using a standard retrograde collagenase perfusion (Kuznetsov V et al. (1995) Circ Res 76: 40-52) from hearts of mice that were either wild-type (WT), or PAFR knockouts (KO). Both WT and KO mice were bred on a C57/B16 background. The derivation of the KO mice has been described previously (Hoffman, B F et al.(1996) J Cardiovasc Electrophysiol 7:120-133).
(§2) Prior to electrophysiological measurements, cells were placed into the perfusion chamber and superfused at room temperature with Tyrode's buffer (in mM: NaCl, 140; KCl, 5.4; CaCl2 1; MgCl2, Hepes, 5; Glucose, 10; pH 7.4). The whole-cell patch clamp technique was used with pipettes having resistances of 1.5-3 MΩ (intracellular solution, in mM: aspartic acid, 130; KOH, 146; NaCl, 10; CaCl2, 2; EGTA, 5; Hepes, 10; MgATP, 2; pH 7.2). Solutions of C-PAF, the PAFR antagonist, CV-6209 (Biomol) and the PKC inhibitor, bisindolylmaleimide I (BIM I; Calbiochem) were prepared in water and diluted in Tyrode's before use. […] A custom-made fast perfusion device was used to exchange the solution around the cell within 1 s (DiFrancesco et al. (1986) J Physiol 377: 61-88).
(§3) Current and voltage protocols were generated using Clampex 7.0 software applied by means of an Axopatch 200B amplifier and a Digidata 1200 interface (Axon Instruments). During voltage clamp, steady state current traces were acquired at 500 Hz and final filtered at 10 Hz. During current clamp, membrane voltage was acquired at 5 KHz and filtered at 1 KHz. Ramp clamps were conducted by imposing a voltage ramp (14 mV/s) at a 500 Hz acquisition rate with 1 kHz filtering. Data were analyzed using pCLAMP 8.0 (Axon) and Origin 6.0 (Microcal) and are presented as mean±SEM. Steady-state current was determined by computer calculation of average current over a time period of at least 5 s. In all experiments, the n value indicates the number of myocytes studied, and represents pooled data from at least 2 (voltage clamp) or 3 (current clamp) animals. Student's t-test, one-way ANOVA and χ^2 tests were used; a value of p<0.05 was considered statistically significant. Records have been corrected for the junction potential, which was measured to be 9.8 mV.

murine TASK-1 [4] = settings: typical, from Barbuti et al. 2002; cited from earlier work
[5] = test system: adult rat ventricular myocytes; experiment: Methanandamide-induced arrhythmias in cultured adult rat ventricular myocytes; type: cell-based; settings: paced at 1 Hz
Protocol: FIG. 28. Methanandamide-induced arrhythmias are prevented by over expression of TREK-1 in cultured myocytes. The action potentials of cultured adult rat ventricular myocytes were recorded in current clamp mode during stimulation at 1 Hz.
The action potentials of cultured adult rat ventricular myocytes were recorded in current clamp mode during stimulation at 1 Hz.

quiescent myocytes = experiment: Spontaneous activity in quiescent mouse ventricular myocytes (current clamp); type: cell-based
Protocol: as §1, §2, §3

TASK-1 [6] = biological target: T1, TASK-1; experiment: Methanandamide-sensitive current in murine ventricular myocytes; type: cell-based
Description: as §2
Current and voltage protocols were generated using Clampex 7.0 software applied by means of an Axopatch 200B amplifier and a Digidata 1200 interface (Axon Instruments). During voltage clamp, steady state current traces were acquired at 500 Hz and final filtered at 10 Hz. […] Data were analyzed using pCLAMP 8.0 (Axon) and Origin 6.0 (Microcal) and are presented as mean±SEM. Steady-state current was determined by computer calculation of average current over a time period of at least 5 s. […] Records have been corrected for the junction potential, which was measured to be 9.8 mV.

PKC = settings: cited from earlier work

In the case of `CCCCCCCCCCCCCC(=O)O[C@@H]1[C@@H](C)[C@@]2(O)[C@@H](C=C(CO)C[C@]3(O)C(=O)C(C)=C[C@@H]23)[C@@H]2C(C)(C)[C@]12OC(C)=O` [PMA, phorbol 12-myristate 13-acetate], the “sensitivity of mutant channel to PMA” value [1] is reported as “nor is it sensitive to PMA treatment”, the “inhibition of T383A channel” value (human TASK-1 T383A) is reported as “not inhibited” and the “TASK-1 current density in the presence of drug” value (murine TASK-1 [2]; +30 mV, C-PAF 185 nM or PMA 100 nM, no peptide) is reported as 59.2±10.1 pA/pF. For the same molecule, the “inhibition of TASK-1 current” value (murine TASK-1 [2]; +30 mV, PMA 100 nM (n=17), C-PAF 185 nM (n=20)) was 19.8±2.7%, the “TASK-1 current density after drug” value (murine TASK-1 [2]; PKCε-inhibitor peptide 100 nM in pipette, C-PAF 185 nM or PMA 100 nM) was 41.2±12.3 pA/pF and the “TASK-1 current density after drug” value (murine TASK-1 [2]; scrambled peptide 100 nM in pipette, PMA 100 nM) was 36.6±6.2 pA/pF.
For `CCCCC/C=C\C/C=C\C/C=C\C/C=C\CCCC(=O)N[C@H](C)CO` [methanandamide], the “effect on C-PAF-sensitive current” value (TASK-1 [3]; held at −10 mV, C-PAF 185 nM, Ba2+ 3 mM, Zn2+ 3 mM, lipids and ATFK 10 μM) is listed as “inhibited”, the “inhibition of TASK-1 current” value (murine TASK-1 [4]) is listed as “approximately 60%” and the “arrhythmias in control cells expressing only GFP” value [5] is listed as “typical arrythmias were observed”. The “arrhythmias in myocytes overexpressing GFP and TREK-1” value [5] was “unable to induce arrhythmias”, the “quiescent WT myocytes with spontaneous action potentials” value (quiescent myocytes; methanandamide 10 μM) was 7 of 12 and the “methanandamide-sensitive current with PAFR blocked or absent” value (TASK-1 [6]; methanandamide 10 μM, CV-6209 100 nM or PAFR KO myocytes) was “fully effective”.
For `CN(C)CCCn1cc(C2=C(c3c[nH]c4ccccc34)C(=O)NC2=O)c2ccccc21` [BIM I, bisindolylmaleimide I], the “effect on C-PAF-sensitive current” value (TASK-1 [3]; BIM I 100 nM, −10 mV) is listed as “completely blocked”, the “effect of PKC inhibitor or inactive analogue on C-PAF-sensitive current” value (TASK-1 [3]; BIM I 40 and 100 nM, BIM V, −10 mV) is listed as “blocked in a dose-dependent manner” and the Ki (PKC) is listed as 14 nM. The “C-PAF-sensitive current in the presence of PKC inhibitor” value (murine TASK-1 [2]; BIM-I 100 nM, C-PAF 185 nM) was “no measurable C-PAF-sensitive current”, the “quiescent WT cells that failed to respond to C-PAF” value (quiescent myocytes; BIM I 100 nM, C-PAF 185 nM) was 6 of 8 and the “effect on methanandamide-sensitive current” value (TASK-1 [6]; BIM I 100 nM, WT myocytes) was “significantly reduced”.
